US20050065202A1, “Use of sulphonamide derivatives for the manufacture of a medicament for the prophylaxis and/or treatment of disorders of food ingestion” (priority 2003, published 2005)
Where a name gives a salt, the structure may show the parent alone.

What was measured:
[1] = molecular target: T1, 5HT6-human recombinant receptor (Homo sapiens, UniProt P50406); assay: Binding to serotonin receptor 5HT6 ([3H]-LSD displacement, HEK-293 cell membranes); settings: for inhibition at 1 µM: read-out: % Inhibition 10^−6 M
T1 construct: purchased Receptor Biology; host or cells: HEK-293 cell membranes
T1 sequence (P50406 whole entry): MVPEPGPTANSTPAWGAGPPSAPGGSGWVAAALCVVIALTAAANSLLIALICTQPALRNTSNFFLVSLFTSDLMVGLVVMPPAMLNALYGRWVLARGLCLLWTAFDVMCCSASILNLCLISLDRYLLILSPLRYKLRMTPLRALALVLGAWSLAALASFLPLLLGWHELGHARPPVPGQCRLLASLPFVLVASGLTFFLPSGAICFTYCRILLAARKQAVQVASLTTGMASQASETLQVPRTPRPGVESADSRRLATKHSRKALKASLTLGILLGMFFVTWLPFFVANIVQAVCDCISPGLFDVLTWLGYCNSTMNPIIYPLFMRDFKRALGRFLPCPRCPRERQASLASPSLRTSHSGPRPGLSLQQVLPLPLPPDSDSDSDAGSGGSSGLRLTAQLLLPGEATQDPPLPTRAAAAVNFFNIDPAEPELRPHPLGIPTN
Procedure: Binding to Serotonin Receptor 5HT6
The respective part of the literature description is hereby incorporated by reference and forms part of the disclosure. […] Tests were made in triplicate.
The binding of the inventively used sulphonamide derivatives of general formula (I) was determined as described above.

| Structure (SMILES) | melting point | inhibition at 1 µM [1] [%] | Ki [1] [nM] |
| --- | --- | --- | --- |
| CN1CCC(c2c[nH]c3ccc(NS(=O)(=O)c4ccc(-c5ccccc5)cc4)cc23)CC1 [Example 15, N-[3-(1-methylpiperidin-4-yl)-1H-indol-5-yl]-4-phenylbenzenesulphonamide] | 247 to 248 °C |  |  |
| CCN(CC)CCc1c[nH]c2ccc(NS(=O)(=O)c3cccc4ccccc34)cc12 [Example 3, Hydrochloride N-[3-(2-diethylaminoethyl)-1H-indol-5-yl]naphthalene-1-sulphonamide] |  | 96.6 ± 5.2 |  |
| CCN(CC)CCc1c[nH]c2ccc(NS(=O)(=O)c3ccc(Cl)s3)cc12 [Example 6, N-[3-(2-diethylaminoethyl)-1H-indol-5-yl]-5-chlorothiophene-2-sulphonamide] | 180 to 181 °C | 97.6 ± 1.8 | 8.7 |
| CCN(CC)CCc1c[nH]c2ccc(NS(=O)(=O)c3cccc4ccccc34)cc12 (as salt: HCl) [Example 3, Hydrochloride N-[3-(2-diethylaminoethyl)-1H-indol-5-yl]naphthalene-1-sulphonamide] | 255 to 257 °C |  |  |
| Cc1c(S(=O)(=O)Nc2ccc3[nH]cc(C4CCN(C)CC4)c3c2)sc2ccc(Cl)cc12 [Example 11, N-[3-(1-methylpiperidin-4-yl)-1H-indol-5-yl]-5-chloro-3-methylbenzo[b]thiophene-2-sulphonamide hydrochloride] |  | 101 | 0.98 |
| CCN(CC)CCc1c[nH]c2ccc(NS(=O)(=O)c3sc4ccc(Cl)cc4c3C)cc12 [Example 1, N-[3-(2-diethylaminoethyl)-1H-indol-5-yl]-5-chloro-3-methylbenzo[b]thiophene-2-sulphonamide] | 170 to 173 °C | 98.1 ± 4 | 0.28 |
| CN1CCC(c2c[nH]c3ccc(NS(=O)(=O)c4cccc5cccnc45)cc23)CC1 [Example 16, N-[3-(1-methylpiperidin-4-yl)-1H-indol-5-yl]quinoline-8-sulphonamide] | 280 °C (dec.) |  |  |
| CN(C)CCc1c[nH]c2ccc(NS(=O)(=O)c3cccc4ccccc34)cc12 [Example 8, N-[3-(2-dimethylaminoethyl)-1H-indol-5-yl]naphthalene-1-sulphonamide] | 203 to 205 °C | 94.5 ± 7 | 0.76 |
| CCN(CC)CCc1c[nH]c2ccc(NS(=O)(=O)c3cc(Cl)cc(Cl)c3)cc12 [Example 4, N-[3-(2-diethylaminoethyl)-1H-indol-5-yl]-3,5-dichlorobenzenesulphonamide] | 168 to 170 °C | 96.2 ± 0.6 |  |
| CN1CCC(c2c[nH]c3ccc(NS(=O)(=O)c4cccc5ccccc45)cc23)CC1 [Example 13, N-[3-(1-methylpiperidin-4-yl)-1H-indol-5-yl]naphthalene-1-sulphonamide hydrochloride] |  | 98.3 |  |
| Cc1c(S(=O)(=O)Nc2ccc3[nH]cc(CCN(C)C)c3c2)sc2ccc(Cl)cc12 [Example 7, N-[3-(2-dimethylaminoethyl)-1H-indol-5-yl]-5-chloro-3-methylbenzo[b]thiophene-2-sulphonamide] | 226 to 227 °C | 103 ± 7.9 | 0.13 |
| CN1CCC(c2c[nH]c3ccc(NS(=O)(=O)c4cccc5ccccc45)cc23)CC1 (as salt: HCl) [Example 13, N-[3-(1-methylpiperidin-4-yl)-1H-indol-5-yl]naphthalene-1-sulphonamide hydrochloride] | 212 °C (dec.) |  |  |
| CN(C)CCc1c[nH]c2ccc(NS(=O)(=O)c3c(Cl)nc4sccn34)cc12 [Example 9, N-[3-(2-dimethylamino-ethyl)-1H-indol-5-yl]-6-chloroimidazo[2,1-b]thiazol-5-sulphonamide] |  | 96.8 ± 3.7 |  |
| CCN(CC)CCc1c[nH]c2ccc(NS(=O)(=O)c3ccc(-c4ccccc4)cc3)cc12 [Example 5, N-[3-(2-diethylaminoethyl)-1H-indol-5-yl]-4-phenylbenzenesulphonamide] | 161 to 163 °C | 101.2 ± 0.1 |  |
| CCN(CC)CCc1c[nH]c2ccc(NS(=O)(=O)c3ccc4ccccc4c3)cc12 [Example 17, N-[3-(2-diethylaminoethyl)-1H-indol-5-yl]naphthalene-2-sulphonamide] | 172 to 173 °C | 102 |  |
| CN1CCC(c2c[nH]c3ccc(NS(=O)(=O)c4ccc(Cl)s4)cc23)CC1 [Example 14, N-[3-(1-methylpiperidin-4-yl)-1H-indol-5-yl]-5-chlorothiophene-2-sulphonamide] | 284 °C (dec.) |  |  |
